According to patent US8889704B2 (Array BioPharma Inc., priority 2011, dated 2014):
pIC50: −log10 of the molar value. Counter-ions that a name gives are not always drawn.

Assays:
Type in all cases: biochemical
PIM-1 = PIM-1 (Homo sapiens, UniProt P11309); assay: Enzyme PIM-1 Assay ([33P]ATP incorporation into PIM2tide, filter plate); settings: averaged IC50; 35 μM ATP, 7.5 μM PIM2tide, 0.25 nM PIM-1, 60 min at 22° C.
In short: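 Ten-point, 3-fold dilution series (10 μM top, 2% DMSO final) tested for inhibition of 33P transfer from 35 μM ATP to 7.5 μM PIM2tide by 0.25 nM PIM-1. Reaction 60 min, 22 °C, pH 7.4 MOPS/MgCl2 buffer; phosphocellulose capture, scintillation counting, IC50 where fitted POC equals 50.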

recombinant rat PIM-3 = recombinant rat PIM-3 (Rattus norvegicus, UniProt O70444); assay: PIM-3 Assay (as Example A); settings: averaged IC50; 30 μM ATP, 3.75 μM PIM2tide, 0.5 nM PIM-3
In short: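 33P incorporation from 30 μM [γ-33P]ATP into 3.75 μM PIM2tide by 0.5 nM rat PIM-3, 60 min at 22 °C in pH 7.4 MOPS buffer, read by P81 filter capture and scintillation counting. Compounds tested in 3-fold dilutions up to 10 μM final, 2% DMSO; percent-of-control data fitted by 4-parameter logistic for IC50.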

[1] = target: T1, GST-tagged recombinant full-length human Pim-2 (Homo sapiens, UniProt Q9P1W9); assay: PIM-2 Assay (as Example A); settings: averaged IC50; 4 μM ATP, 1.0 μM PIM2tide, 1.5 nM Pim-2
T1 construct: GST-tagged recombinant full-length human Pim-2; GST
In short: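 IC50 was derived by 4-parameter logistic fitting of percent-of-control data over a 10-point, 3-fold series (highest 10 μM, 2% DMSO). Reactions held 1.5 nM GST-Pim-2 (full-length, human), 4 μM [γ-33P]ATP and 1.0 μM PIM2tide for 60 min at 22 °C, pH 7.4; 33P-peptide captured on P81 filters.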

PIM-1, sequence (P11309 whole entry, species assumed): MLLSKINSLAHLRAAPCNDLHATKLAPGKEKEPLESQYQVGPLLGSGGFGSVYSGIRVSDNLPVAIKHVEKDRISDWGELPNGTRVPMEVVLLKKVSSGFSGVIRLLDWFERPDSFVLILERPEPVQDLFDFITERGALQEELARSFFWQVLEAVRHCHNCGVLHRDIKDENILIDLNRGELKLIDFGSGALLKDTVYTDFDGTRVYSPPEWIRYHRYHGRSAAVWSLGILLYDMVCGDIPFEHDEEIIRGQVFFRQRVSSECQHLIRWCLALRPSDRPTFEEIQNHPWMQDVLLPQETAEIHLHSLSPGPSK
T1 sequence (Q9P1W9 whole entry): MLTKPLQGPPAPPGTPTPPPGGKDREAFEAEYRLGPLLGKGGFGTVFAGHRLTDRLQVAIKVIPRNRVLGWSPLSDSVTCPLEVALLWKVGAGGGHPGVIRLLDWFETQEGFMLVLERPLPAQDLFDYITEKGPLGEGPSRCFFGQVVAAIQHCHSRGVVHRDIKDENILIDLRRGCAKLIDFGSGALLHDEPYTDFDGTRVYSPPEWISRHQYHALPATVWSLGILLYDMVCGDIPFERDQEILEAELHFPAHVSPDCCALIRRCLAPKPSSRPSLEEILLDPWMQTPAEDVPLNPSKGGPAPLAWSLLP

Structure (SMILES) | pIC50 (PIM-1) | pIC50 (recombinant rat PIM-3) | pIC50 [1]
COc1cc2nc(-c3nnc4ccc([C@@H](N5CC(F)[C@H](N)C5)C(F)(F)F)cn34)ccc2cc1F (stereo partly drawn) [Example 162, (3R)-4-fluoro-1-((R)-2,2,2-trifluoro-1-(3-(6-fluoro-7-methoxyquinolin-2-yl)-[1,2,4]triazolo[4,3-a]pyridin-6-yl)ethyl)pyrrolidin-3-amine dihydrochloride] | 8.91 | 7.46 | < 7.00
N[C@H]1CCN([C@H](c2ccc3nnc(-c4ccc5cc(F)cc(O)c5n4)n3c2)C(F)(F)F)C1 [Example 163, 2-(6-((R)-1-((S)-3-aminopyrrolidin-1-yl)-2,2,2-trifluoroethyl)-[1,2,4]triazolo[4,3-a]pyridin-3-yl)-6-fluoroquinolin-8-ol hydrochloride] | 9.52 | 8.00 | < 7.00
N[C@H]1CCN([C@H](c2ccc3nnc(-c4ccc5cc(F)c(C6(CO)CC6)cc5n4)n3c2)C(F)(F)F)C1 [Example 164, (1-(2-(6-((R)-1-((S)-3-aminopyrrolidin-1-yl)-2,2,2-trifluoroethyl)-[1,2,4]triazolo[4,3-a]pyridin-3-yl)-6-fluoroquinolin-7-yl)cyclopropyl)methanol dihydrochloride] | 8.58 | 8.14 | < 7.00
COCC1(c2cc3nc(-c4nnc5ccc([C@@H](N6CC[C@H](N)C6)C(F)(F)F)cn45)ccc3cc2F)CC1 [Example 165, (S)-1-((R)-2,2,2-trifluoro-1-(3-(6-fluoro-7-(1-(methoxymethyl)cyclopropyl)quinolin-2-yl)-[1,2,4]triazolo[4,3-a]pyridin-6-yl)ethyl)pyrrolidin-3-amine dihydrochloride] | 8.42 | 8.18 | < 7.00
COCCc1ccc2ccc(-c3nnc4ccc([C@@H](N5CC[C@H](N)C5)C(F)(F)F)cn34)nc2c1F [Example 166, (S)-1-((R)-2,2,2-trifluoro-1-(3-(8-fluoro-7-(2-methoxyethyl)quinolin-2-yl)-[1,2,4]triazolo[4,3-a]pyridin-6-yl)ethyl)pyrrolidin-3-amine dihydrochloride] | 8.88 | 8.05 | < 7.00
COc1ccc2ccc(-c3nnc4ccc([C@@H](N5CC[C@H](N)C5)C(F)(F)F)cn34)nc2c1F [Example 167, (S)-1-((R)-2,2,2-trifluoro-1-(3-(8-fluoro-7-methoxyquinolin-2-yl)-[1,2,4]triazolo[4,3-a]pyridin-6-yl)ethyl)pyrrolidin-3-amine dihydrochloride] | 8.69 | 7.92 | < 7.00
N[C@H]1CCN([C@H](c2ccc3nnc(-c4ccc5cccc(F)c5n4)n3c2)C(F)(F)F)C1 [Example 168, (S)-1-((R)-2,2,2-trifluoro-1-(3-(8-fluoroquinolin-2-yl)-[1,2,4]triazolo[4,3-a]pyridin-6-yl)ethyl)pyrrolidin-3-amine dihydrochloride] | 8.76 | 7.82 | < 7.00
Cn1cc(-c2ccc3ccc(-c4nnc5ccc([C@@H](N6CC[C@H](N)C6)C(F)(F)F)cn45)nc3c2F)cn1 [Example 171, (S)-1-((R)-2,2,2-trifluoro-1-(3-(8-fluoro-7-(1-methyl-1H-pyrazol-4-yl)quinolin-2-yl)-[1,2,4]triazolo[4,3-a]pyridin-6-yl)ethyl)pyrrolidin-3-amine tri-hydrochloride] | 9.54 | 9.30 | < 7.00
N[C@H]1CCN([C@H](c2ccc3nnc(-c4ccc5ccc(C6CC6)c(F)c5n4)n3c2)C(F)(F)F)C1 [Example 172, (S)-1-((R)-1-(3-(7-cyclopropyl-8-fluoroquinolin-2-yl)-[1,2,4]triazolo[4,3-a]pyridin-6-yl)-2,2,2-trifluoroethyl)pyrrolidin-3-amine dihydrochloride] | 8.65 | 8.00 | < 7.00
Cn1cc(-c2cc3nc(-c4nnc5ccc([C@@H](N6CC[C@H](N)C6)C(F)(F)F)cn45)ccc3cc2F)cn1 [Example 173, (S)-1-((R)-2,2,2-trifluoro-1-(3-(6-fluoro-7-(1-methyl-1H-pyrazol-4-yl)quinolin-2-yl)-[1,2,4]triazolo[4,3-a]pyridin-6-yl)ethyl)pyrrolidin-3-amine tri-hydrochloride] | 9.89 | 9.40 | < 7.00
COCCOc1ccc2ccc(-c3nnc4ccc([C@@H](N5CC[C@H](N)C5)C(F)(F)F)cn34)nc2c1Cl [Example 174, (S)-1-((R)-1-(3-(8-chloro-7-(2-methoxyethoxy)quinolin-2-yl)-[1,2,4]triazolo[4,3-a]pyridin-6-yl)-2,2,2-trifluoroethyl)pyrrolidin-3-amine hydrochloride] | 8.96 | 9.10 | < 7.00
COc1ccc2ccc(-c3nnc4ccc([C@@H](N5CC[C@H](N)C5)C(F)(F)F)cn34)nc2c1Cl [Example 175, (S)-1-((R)-1-(3-(8-chloro-7-methoxyquinolin-2-yl)-[1,2,4]triazolo[4,3-a]pyridin-6-yl)-2,2,2-trifluoroethyl)pyrrolidin-3-amine hydrochloride] | 9.15 | 8.85 | < 7.00
N[C@H]1CCN([C@H](c2ccc3nnc(-c4ccc5cc(F)c(C6CC6)cc5n4)n3c2)C(F)(F)F)C1 [Example 176, (S)-1-((R)-1-(3-(7-cyclopropyl-6-fluoroquinolin-2-yl)-[1,2,4]triazolo[4,3-a]pyridin-6-yl)-2,2,2-trifluoroethyl)pyrrolidin-3-amine dihydrochloride] | 9.77 | 8.57 | 7.04
N[C@H]1CCN([C@H](c2ccc3nnc(-c4ccc5cc(F)cc(C6CC6)c5n4)n3c2)C(F)(F)F)C1 [Example 177, (S)-1-((R)-1-(3-(8-cyclopropyl-6-fluoroquinolin-2-yl)-[1,2,4]triazolo[4,3-a]pyridin-6-yl)-2,2,2-trifluoroethyl)pyrrolidin-3-amine dihydrochloride] | 9.51 | 8.77 | < 7.00
COc1c(F)cc2ccc(-c3nnc4ccc([C@@H](N5CC[C@H](N)C5)C(F)(F)F)cn34)nc2c1F [Example 178, (S)-1-((R)-1-(3-(6,8-difluoro-7-methoxyquinolin-2-yl)-[1,2,4]triazolo[4,3-a]pyridin-6-yl)-2,2,2-trifluoroethyl)pyrrolidin-3-amine dihydrochloride] | 8.74 | 7.72 | < 7.00
COCCOc1ccc2ccc(-c3nnc4ccc([C@@H](N5CC[C@H](N)C5)C(F)(F)F)cn34)nc2c1F [Example 179, (S)-1-((R)-2,2,2-trifluoro-1-(3-(8-fluoro-7-(2-methoxyethoxy)quinolin-2-yl)-[1,2,4]triazolo[4,3-a]pyridin-6-yl)ethyl)pyrrolidin-3-amine dihydrochloride] | 8.61 | 8.39 | < 7.00
COC[C@@H](C)Oc1ccc2ccc(-c3nnc4ccc([C@@H](N5CC[C@H](N)C5)C(F)(F)F)cn34)nc2c1F [Example 180, (S)-1-((R)-2,2,2-trifluoro-1-(3-(8-fluoro-7-((R)-1-methoxypropan-2-yloxy)quinolin-2-yl)-[1,2,4]triazolo[4,3-a]pyridin-6-yl)ethyl)pyrrolidin-3-amine dihydrochloride] | 8.51 | 7.89 | < 7.00
N[C@@H]1CN([C@H](c2ccc3nnc(-c4ccc5cc(F)cc(C6CC6)c5n4)n3c2)C(F)(F)F)C[C@H]1O [Example 181, (3R,4R)-4-amino-1-((R)-1-(3-(8-cyclopropyl-6-fluoroquinolin-2-yl)-[1,2,4]triazolo[4,3-a]pyridin-6-yl)-2,2,2-trifluoroethyl)pyrrolidin-3-ol dihydrochloride] | 9.39 | 8.57 | 7.02
N[C@H]1CCN([C@H](c2ccc3nnc(-c4ccc5cccc(Cl)c5n4)n3c2)C(F)(F)F)C1 [Example 182, (S)-1-((R)-2,2,2-trifluoro-1-(3-(8-chloroquinolin-2-yl)-[1,2,4]triazolo[4,3-a]pyridin-6-yl)ethyl)pyrrolidin-3-amine dihydrochloride] | 9.12 | 8.39 | < 7.00
Cc1cccc2ccc(-c3nnc4ccc([C@@H](N5CC[C@H](N)C5)C(F)(F)F)cn34)nc12 [Example 183, (S)-1-((R)-2,2,2-trifluoro-1-(3-(8-methylquinolin-2-yl)-[1,2,4]triazolo[4,3-a]pyridin-6-yl)ethyl)pyrrolidin-3-amine dihydrochloride] | 9.57 | 8.92 | < 7.00
Cc1cc(F)cc2ccc(-c3nnc4ccc([C@@H](N5CC[C@H](N)C5)C(F)(F)F)cn34)nc12 [Example 184, (S)-1-((R)-2,2,2-trifluoro-1-(3-(6-fluoro-8-methylquinolin-2-yl)-[1,2,4]triazolo[4,3-a]pyridin-6-yl)ethyl)pyrrolidin-3-amine dihydrochloride] | 9.39 | 8.82 | < 7.00
